According to US20140155361A1, “METHOD FOR TREATING LUNG DISEASE” (Duke University, priority 2010, published 2014):

Assays:
[1] = test system: NQO1 deficient and C57BL/6 mice; assay: elastase (PPE) model of emphysema with oral NAC; type: in vivo, mouse
Excerpt: (§1) C57BL/6J mice were purchased from Jackson Laboratories (Bar Harbor, Me.) to be used as controls. A breeding colony was established at Duke University from breeding pairs of NQO1 deficient mice (backcrossed 16 generations on a C57BL/6 background) that were generously provided by Dr. Frank Gonzalez at the National Cancer Institute (Bethesda, Md.) (Radjendirane et al. J. Biol. Chem. 1998; 273:7382-7389). Male C57BL/6 or NQO1 deficient mice were used at one, two, four and six months of age. Experimental protocols were approved by the Institutional Animal Care and Use Committee at Duke University Medical Center and were performed in accordance with the standards established by the U.S. Animal Welfare Act.
At two months of age, WT and NQO1 deficient mice were treated with porcine pancreatic elastase (PPE, Sigma Aldrich, St. Louis Mo.) or saline by oropharyngeal aspiration. Briefly, immediately after inhalational anesthesia with 3% isoflurane (IsoFlo from Abbott Laboratories and Open-Circuit Gas Anesthesia System from Stoelting), animals were suspended by their upper incisors on a 60° incline board, and a liquid volume of PPE [25 μg/50 μL saline] or saline alone was delivered by oropharyngeal aspiration. Thirteen days post, the mice were phenotyped by flexiVent for pulmonary mechanics and lavage to collect bronchoalveolar lavage fluid (Foster et al. J Appl Physiol 2001; 90:1111-1117).
(§2) N-acetyl cysteine (Sigma Aldrich, St. Louis Mo.) was dissolved in the mouse water at a concentration of 2 mg/mL (March et al. Toxicol. Sci. 2006; 92:545-559). The water was changed every two days to prevent oxidation of the NAC. Mice were given NAC in their water for one week before LPS/Saline or PPE/Saline treatment and remained on the NAC water until phenotyping.
(§3) For the mice that underwent pulmonary function tests, the procedure required approximately five minutes per mouse from the point at which the mouse was administered anesthetic and prepared for surgery until the conclusion of pulmonary function measurements and euthanasia. Mice were anesthetized (60 mg/kg Nembutal) and surgically prepared with a tracheal cannula and then placed on a computer-controlled ventilator (flexiVent, SCIREQ, Montreal, Canada) at a constant tidal volume of 7.5 mL/kg and a […] of 3 cm H2O. The animals were then given a neuromuscular blockade (0.8 mg/kg Pancuronium Bromide, Sigma-Aldrich) and given three minutes to adjust to the ventilator. Pressure-volume curves were generated by slow stepwise (ramp) inflation to total lung capacity and deflation back to […] residual capacity (Lovgren et al. Am. J. Physiol. 2006; 291:L144-156). The static compliance measurements were calculated from the pressure volume curves ([…]).
(§4) Alveolar surface density (ASD) was calculated as previously described (Auten et al. Am. J. Physiol. 2001; 281:L336-344). Briefly, ten digital images of parenchymal architecture from each mouse were captured at 40× magnification were chosen (omitting large vascular and bronchiolar structures) from 5 μm thick sections of paraffin embedded, formalin-fixed mouse lung that were stained with hematoxylin and eosin (H&E stain, AML Laboratories, Rosedale, Md.). Five random fields were chosen (omitting large vascular and bronchiolar structures) and images were overlaid with an 11°-11 point grid (Metamorph; Universal Imaging, West Chester, Pa.) for point (P) and intercept (I) counting of the alveolar septa. Alveolar volume density was calculated from Palveoli/Pparenchyma and alveolar surface density from 2Ialveoli/LT, where LT was the test line length within the lung parenchyma.

[2] = test system: NQO1 deficient and C57BL/6 mice; assay: LPS-induced murine emphysema with oral NAC; type: in vivo, mouse
Excerpt: as §1
LPS (Sigma Aldrich, St Louis Mo.) was reconstituted with sterile saline and added for a dose of 5 μg/m^3. At one month of age, mice were placed in stainless steel wire cage exposure racks in a 20-L plexiglass chamber and exposed to aerosolized LPS for 2.5 hours. LPS solution was aerosolized with a 6-jet atomizer (TSI) with all output directed to the exposure chamber. Filtered air was supplied to the atomizer at 30-psi gauge pressure (Brass et al. Am. J. Resp. Cell. Mol. 2008; 39:584-590). Mice were then returned to their cages. The mice were exposed every other day for a total of three exposures and then given four weeks to recover.
as §2, §3
as §4, with “Five random fields were chosen (omitting large vascular and bronchiolar structures) and images were overlaid with an 11°-11 point grid (Metamorph; Universal Imaging, West Chester, Pa.) for point (P) and intercept (I) counting of the alveolar septa.” left out, “parenchyma. […]” for “parenchyma.”

human cancer cell lines = settings: single agent, read-out: antineoplastic activity (IC50); cited from earlier work
[3] = test system: mouse alveolar macrophage cell line (MHS cells); assay: oxidative stress in macrophage cell line after NQO1 inhibitor or inducer pretreatment and LPS or PMA challenge; type: cell-based; settings: pretreated 4 hours (100 nM MAC220 or 5-10 μM β-lapachone), then PMA or LPS 2 hours, supernatant
Protocol: Murine alveolar macrophage cell line (MH-S cell) purchased from ATCC (Manassas, Va.) was used for in vitro NQO1 blocking and inducing assays. Cells were cultured in RPMI1640 medium supplemented with 10% heat-inactivated fetal bovine serum, 2 mM L-glutamine, penicillin (100 U/ml), streptomycin (100 μg/ml), and 10 mM HEPES. To determine the role of NQO1 in macrophage response to LPS or PMA, cells at 80-90% confluence were pretreated with 10 μM of dicumerol for 1 hour, 100 nM of MAC220 or 5-10 μM of β-lapachone for 4 hours, and then were challenged by 20 ng/ml of LPS or 1 μM of PMA. Cell culture supernatants were collected after 2 hour incubation. Same volume of DMSO and PBS were used as vehicle control.

[4] = test system: human DNA Topoisomerase II; settings: cited from earlier work
[5] = biological target: T1, human DNA Topoisomerase I (Homo sapiens, UniProt P11387); settings: cited from earlier work
T1 sequence (P11387 1-765): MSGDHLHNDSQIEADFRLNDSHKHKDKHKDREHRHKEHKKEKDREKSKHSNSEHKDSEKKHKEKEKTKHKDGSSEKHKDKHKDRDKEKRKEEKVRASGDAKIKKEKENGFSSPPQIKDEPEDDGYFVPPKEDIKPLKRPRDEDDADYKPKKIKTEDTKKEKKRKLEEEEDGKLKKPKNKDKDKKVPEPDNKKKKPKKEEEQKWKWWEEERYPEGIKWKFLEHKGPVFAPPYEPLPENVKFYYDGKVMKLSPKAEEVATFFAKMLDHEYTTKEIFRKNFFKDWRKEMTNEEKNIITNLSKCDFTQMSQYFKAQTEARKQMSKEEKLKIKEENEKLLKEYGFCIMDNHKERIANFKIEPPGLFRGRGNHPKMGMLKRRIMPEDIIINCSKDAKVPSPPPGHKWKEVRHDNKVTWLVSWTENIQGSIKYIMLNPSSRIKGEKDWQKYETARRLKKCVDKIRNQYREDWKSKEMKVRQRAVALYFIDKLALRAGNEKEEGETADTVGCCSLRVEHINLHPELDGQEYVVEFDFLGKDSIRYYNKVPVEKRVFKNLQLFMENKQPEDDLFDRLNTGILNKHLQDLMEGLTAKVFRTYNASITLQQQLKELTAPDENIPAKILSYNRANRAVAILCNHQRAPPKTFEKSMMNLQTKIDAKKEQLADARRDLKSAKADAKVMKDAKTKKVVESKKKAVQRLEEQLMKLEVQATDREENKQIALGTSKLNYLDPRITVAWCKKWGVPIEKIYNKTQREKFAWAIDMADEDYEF

[6] = BALF, NQO1 and WT mice given NAC prior to elastase challenge
[7] = NQO1 deficient mice, oral NAC in water + elastase vs elastase only
[8] = LPS treated NQO1 deficient mice compared to LPS+NAC NQO1 deficient mice

Compound | 8-isoprostane levels [1, 6] | protein carbonyls [1, 6] | Glutathione measurements in the BAL ([1]; NQO1 deficient mice treated with NAC, elastase model) | lung compliance [1, 7] | pressure-volume measurements [1, 7] | neutrophils in BALF ([1]; PPE only group compared to the PPE+NAC group, NQO1 deficient and C57BL/6 mice) | mean line intercepts ([1]; PPE+NAC vs PPE groups) | surface alveolar density ([1]; PPE+NAC vs PPE groups) | 8-isoprostane concentrations in the BALF [2, 8] | protein carbonyls in the BALF [2, 8] | polymorphonuclear leukocytes, share of BALF cells ([2]; LPS+NAC treated NQO1 deficient mice (LPS only: 5-9%)) | Glutathione measurements in the BAL ([2]; NQO1 deficient mice treated with NAC, LPS model) | static compliance ([2]; NQO1 deficient mice, LPS + NAC vs LPS) | IC50 (human cancer cell lines) [µM] | oxidative stress level [3] | in vitro inhibition of human DNA Topoisomerase II [4] | in vitro inhibition of human DNA Topoisomerase I [5]
CC(=O)N[C@@H](CS)C(=O)O [NAC, N-acetyl cysteine] | reduction | reduction | increased concentrations | partially attenuated | partially attenuated | significant increase | complete abrogation of the elastase effect | complete abrogation of the elastase effect | significant increase | significant increase | 1-4% | increased concentrations | attenuated | – | – | – | –
CC1(C)CCC2=C(O1)c1ccccc1C(=O)C2=O [β-lapachone, 3,4-dihydro-2,2-dimethyl-2H-naphtho[1,2-b]pyran-5,6-dione] | – | – | – | – | – | – | – | – | – | – | – | – | – | 1 to 10 | dose response decrease | potent in vitro inhibition | potent in vitro inhibition
